# Data as given in ChEMBL document CHEMBL3994622, “Design and synthesis of new RAF kinase-inhibiting antiproliferative quinoline derivatives. Part 2: Diarylurea derivatives” (Eur J Med Chem, 2017).
# How the values were obtained:
# Assay type in all cases: functional
# SK-MEL-5 [1] = assay: Growth inhibition of human SK-MEL-5 cells assessed as cell growth at 0.003 uM incubated for 48 hrs by sulforhodamine B assay relative to control; details: SK-MEL-5, 48 h, read-out: Activity
# BT-549 = assay: Growth inhibition of human BT549 cells assessed as cell growth at 0.003 uM incubated for 48 hrs by sulforhodamine B assay relative to control; details: BT-549, 48 h, read-out: Activity
# NCI-H322M = assay: Growth inhibition of human NCI-H322M cells assessed as cell growth at 0.03 uM incubated for 48 hrs by sulforhodamine B assay relative to control; details: read-out: Activity
# MDA-MB-435 = assay: Growth inhibition of human MDA-MB-435 cells assessed as cell growth at 0.03 uM incubated for 48 hrs by sulforhodamine B assay relative to control; details: MDA-MB-435, 48 h, read-out: Activity
# COLO 205 [2] = assay: Growth inhibition of human COLO205 cells assessed as cell growth at 0.3 uM incubated for 48 hrs by sulforhodamine B assay relative to control; details: COLO 205, 48 h, read-out: Activity
# U-251 = assay: Growth inhibition of human U251 cells assessed as cell growth at 0.3 uM incubated for 48 hrs by sulforhodamine B assay relative to control; details: U-251, 48 h, read-out: Activity
# M14 [3] = assay: Growth inhibition of human M14 cells assessed as cell growth at 0.3 uM incubated for 48 hrs by sulforhodamine B assay relative to control; details: M14, 48 h, read-out: Activity
# SF-295 [4] = assay: Growth inhibition of human SF295 cells assessed as cell growth at 3 uM incubated for 48 hrs by sulforhodamine B assay relative to control; details: SF-295, 48 h, read-out: Activity
# UACC-257 [5] = assay: Growth inhibition of human UACC257 cells assessed as cell growth at 3 uM incubated for 48 hrs by sulforhodamine B assay relative to control; details: UACC-257, 48 h, read-out: Activity
# ACHN = assay: Growth inhibition of human ACHN cells assessed as cell growth at 3 uM incubated for 48 hrs by sulforhodamine B assay relative to control; details: read-out: Activity
# RXF 393 = assay: Growth inhibition of human RXF393 cells assessed as cell growth at 3 uM incubated for 48 hrs by sulforhodamine B assay relative to control; details: RXF 393, 48 h, read-out: Activity
# DU-145 [6] = assay: Growth inhibition of human DU145 cells assessed as cell growth at 3 uM incubated for 48 hrs by sulforhodamine B assay relative to control; details: DU-145, 48 h, read-out: Activity
# SF-268 = assay: Growth inhibition of human SF268 cells assessed as cell growth at 30 uM incubated for 48 hrs by sulforhodamine B assay relative to control; details: SF-268, 48 h, read-out: Activity
# SNB-75 = assay: Growth inhibition of human SNB75 cells assessed as cell growth at 30 uM incubated for 48 hrs by sulforhodamine B assay relative to control; details: SNB-75, 48 h, read-out: Activity
# HL-60(TB) [7] = assay: Growth inhibition of human HL-60(TB) cells assessed as cell growth at 0.01 uM incubated for 48 hrs by sulforhodamine B assay relative to control; details: HL-60, 48 h, read-out: Activity
# SF-295 [8] = assay: Growth inhibition of human SF295 cells assessed as cell growth at 0.01 uM incubated for 48 hrs by sulforhodamine B assay relative to control; details: SF-295, 48 h, read-out: Activity
# UACC-257 [9] = assay: Growth inhibition of human UACC257 cells assessed as cell growth at 0.01 uM incubated for 48 hrs by sulforhodamine B assay relative to control; details: UACC-257, 48 h, read-out: Activity
# UACC-62 = assay: Growth inhibition of human UACC62 cells assessed as cell growth at 0.01 uM incubated for 48 hrs by sulforhodamine B assay relative to control; details: UACC-62, 48 h, read-out: Activity
# OVCAR-5 [10] = assay: Growth inhibition of human OVCAR5 cells assessed as cell growth at 0.01 uM incubated for 48 hrs by sulforhodamine B assay relative to control; details: OVCAR-5, 48 h, read-out: Activity
# SK-OV-3 = assay: Growth inhibition of human SKOV3 cells assessed as cell growth at 0.01 uM incubated for 48 hrs by sulforhodamine B assay relative to control; details: SK-OV-3, 48 h, read-out: Activity
# UO-31 = assay: Growth inhibition of human UO31 cells assessed as cell growth at 0.01 uM incubated for 48 hrs by sulforhodamine B assay relative to control; details: UO-31, 48 h, read-out: Activity
# CCRF-CEM = assay: Growth inhibition of human CCRF-CEM cells assessed as cell growth at 0.1 uM incubated for 48 hrs by sulforhodamine B assay relative to control; details: read-out: Activity
# COLO 205 [11] = assay: Growth inhibition of human COLO205 cells assessed as cell growth at 0.1 uM incubated for 48 hrs by sulforhodamine B assay relative to control; details: COLO 205, 48 h, read-out: Activity
# HT-29 = assay: Growth inhibition of human HT-29 cells assessed as cell growth at 0.1 uM incubated for 48 hrs by sulforhodamine B assay relative to control; details: HT-29, 48 h, read-out: Activity
# Hs-578T = assay: Growth inhibition of human Hs 578T cells assessed as cell growth at 0.1 uM incubated for 48 hrs by sulforhodamine B assay relative to control; details: read-out: Activity
# HL-60(TB) [12] = assay: Growth inhibition of human HL-60(TB) cells assessed as cell growth at 1 uM incubated for 48 hrs by sulforhodamine B assay relative to control; details: HL-60, 48 h, read-out: Activity
# NCI-H522 = assay: Growth inhibition of human NCI-H522 cells assessed as cell growth at 1 uM incubated for 48 hrs by sulforhodamine B assay relative to control; details: NCI-H522, 48 h, read-out: Activity
# M14 [13] = assay: Growth inhibition of human M14 cells assessed as cell growth at 1 uM incubated for 48 hrs by sulforhodamine B assay relative to control; details: M14, 48 h, read-out: Activity
# SK-MEL-5 [14] = assay: Growth inhibition of human SK-MEL-5 cells assessed as cell growth at 1 uM incubated for 48 hrs by sulforhodamine B assay relative to control; details: SK-MEL-5, 48 h, read-out: Activity
# PC-3 = assay: Growth inhibition of human PC3 cells assessed as cell growth at 1 uM incubated for 48 hrs by sulforhodamine B assay relative to control; details: PC-3, 48 h, read-out: Activity
# OVCAR-5 [15] = assay: Growth inhibition of human OVCAR5 cells assessed as cell growth at 10 uM incubated for 48 hrs by sulforhodamine B assay relative to control; details: OVCAR-5, 48 h, read-out: Activity
# SW-620 = assay: Growth inhibition of human SW620 cells assessed as cell growth at 100 uM incubated for 48 hrs by sulforhodamine B assay relative to control; details: SW-620, 48 h, read-out: Activity
# SK-MEL-5 [16] = assay: Growth inhibition of human SK-MEL-5 cells assessed as cell growth at 100 uM incubated for 48 hrs by sulforhodamine B assay relative to control; details: SK-MEL-5, 48 h, read-out: Activity
# IGROV-1 = assay: Growth inhibition of human IGROV1 cells assessed as cell growth at 100 uM incubated for 48 hrs by sulforhodamine B assay relative to control; details: IGROV-1, 48 h, read-out: Activity
# DU-145 [17] = assay: Growth inhibition of human DU145 cells assessed as cell growth at 100 uM incubated for 48 hrs by sulforhodamine B assay relative to control; details: DU-145, 48 h, read-out: Activity
Structure (SMILES),growth at 0.003 µM (SK-MEL-5 [1]) [%],growth at 0.003 µM (BT-549) [%],growth at 0.03 µM (NCI-H322M) [%],growth at 0.03 µM (MDA-MB-435) [%],growth at 0.3 µM (COLO 205 [2]) [%],growth at 0.3 µM (U-251) [%],growth at 0.3 µM (M14 [3]) [%],growth at 3 µM (SF-295 [4]) [%],growth at 3 µM (UACC-257 [5]) [%],growth at 3 µM (ACHN) [%],growth at 3 µM (RXF 393) [%],growth at 3 µM (DU-145 [6]) [%],growth at 30 µM (SF-268) [%],growth at 30 µM (SNB-75) [%],growth at 0.01 µM (HL-60(TB) [7]) [%],growth at 0.01 µM (SF-295 [8]) [%],growth at 0.01 µM (UACC-257 [9]) [%],growth at 0.01 µM (UACC-62) [%],growth at 0.01 µM (OVCAR-5 [10]) [%],growth at 0.01 µM (SK-OV-3) [%],also measured
COc1cc2cc(Oc3ccc(NC(=O)Nc4ccc(Cl)c(C(F)(F)F)c4)cc3)c(C)nc2cc1OC,100,98,90,95,102,94,94,-5,-13,8,10,17,-64,-44,,,,,,,
COc1cc2cc(Oc3ccc(NC(=O)Nc4ccc(Cl)c(Cl)c4)cc3)c(C)nc2cc1OC,,,,,,,,,,,,,,,104,88,97,94,103,103,growth at 0.01 µM (UO-31): 96%; growth at 0.1 µM (CCRF-CEM): 104%; growth at 0.1 µM (COLO 205 [11]): 107%; growth at 0.1 µM (HT-29): 110%; growth at 0.1 µM (Hs-578T): 99%; growth at 1 µM (HL-60(TB) [12]): 107%; growth at 1 µM (NCI-H522): 68%; growth at 1 µM (M14 [13]): 83%; growth at 1 µM (SK-MEL-5 [14]): 91%; growth at 1 µM (PC-3): 67%; growth at 10 µM (OVCAR-5 [15]): 50%; growth at 100 µM (SW-620): -68%; growth at 100 µM (SK-MEL-5 [16]): -93%; growth at 100 µM (IGROV-1): -15%; growth at 100 µM (DU-145 [17]): -64%
COc1cc2cc(Oc3ccc(NC(=O)Nc4cc(C(F)(F)F)cc(C(F)(F)F)c4)cc3)c(C)nc2cc1OC,,,,,,,,,,,,,,,89,88,104,90,87,91,growth at 0.01 µM (UO-31): 82%; growth at 0.1 µM (CCRF-CEM): 97%; growth at 0.1 µM (COLO 205 [11]): 100%; growth at 0.1 µM (HT-29): 97%; growth at 0.1 µM (Hs-578T): 109%; growth at 1 µM (HL-60(TB) [12]): 72%; growth at 1 µM (NCI-H522): 63%; growth at 1 µM (M14 [13]): 50%; growth at 1 µM (SK-MEL-5 [14]): 84%; growth at 1 µM (PC-3): 27%; growth at 10 µM (OVCAR-5 [15]): -58%; growth at 100 µM (SW-620): -66%; growth at 100 µM (SK-MEL-5 [16]): -93%; growth at 100 µM (IGROV-1): -63%; growth at 100 µM (DU-145 [17]): -96%
Cc1nc2cc(O)c(O)cc2cc1Oc1ccc(NC(=O)Nc2ccc(Cl)c(Cl)c2)cc1,98,91,108,91,109,87,93,98,87,51,86,82,1,-4,,,,,,,
